Measured values reported in PubChem BioAssay AID2060892 (Molecular Pharmacology Branch, DTP, NCI, 2025).

Tested on: HOP-62 complex spheroids with HUVEC/MSC, viability
Test: Anticancer human tumor HOP-62 cell line growth inhibition [RAS];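 further: spheroids exposed to agents for seven days before readout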;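 on viability, T/C: 100% = DMSO vehicle control viability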
Conditions: for IC50: curve of first compound; for viability, T/C: stronger effect = lower value
Procedure, shortened: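 Tumour cells grown as complex spheroids with HUVEC endothelial cells and mesenchymal stem cells, treated with RAS pathway inhibitor combinations. Each agent spans half-log steps from near clinical Cmax, or 10 microM where Cmax is unknown.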

[1] = second compound 0.000949 µM, first compound 0.0316 µM
[2] = second compound 0.000949 µM, first compound 0.1 µM
[3] = second compound 0.000949 µM, first compound 0.316 µM
[4] = second compound 0.000949 µM, first compound 1 µM
[5] = second compound 0.003 µM, first compound 0.0316 µM
[6] = second compound 0.003 µM, first compound 0.1 µM
[7] = second compound 0.003 µM, first compound 0.316 µM
[8] = second compound 0.003 µM, first compound 1 µM
[9] = second compound 0.00949 µM, first compound 0.0316 µM
[10] = second compound 0.00949 µM, first compound 0.1 µM
[11] = second compound 0.00949 µM, first compound 0.316 µM
[12] = second compound 0.00949 µM, first compound 1 µM
[13] = second compound 0.03 µM, first compound 0.0316 µM
[14] = second compound 0.03 µM, first compound 0.1 µM
[15] = second compound 0.03 µM, first compound 0.316 µM
[16] = second compound 0.03 µM, first compound 1 µM
[17] = second compound 0.0949 µM, first compound 0.0316 µM
[18] = second compound 0.0949 µM, first compound 0.1 µM
[19] = second compound 0.0949 µM, first compound 0.316 µM
[20] = second compound 0.0949 µM, first compound 1 µM
[21] = second compound 0.3 µM, first compound 0.0316 µM
[22] = second compound 0.3 µM, first compound 0.1 µM
[23] = second compound 0.3 µM, first compound 0.316 µM
[24] = second compound 0.3 µM, first compound 1 µM

With NC1c2ccccc2OC12CCN(c1cnc3c(N4CCCc5ncccc54)n[nH]c3n1)CC2 (centres undefined) + CCn1c(-c2cc(N3CCN(C)CC3)cnc2C(C)OC)c2c3cc(ccc31)-c1csc(n1)CC(NC(=O)C1CC1C)C(=O)N1CCCC(N1)C(=O)OCC(C)(C)C2 the IC50 (second compound 0.000949 µM) was 0.18 µM, the IC50 (second compound 0.003 µM) was 0.072 µM and the IC50 (second compound 0.00949 µM) was under 0.0316 µM. The IC50 (second compound 0.03 µM) was under 0.0316 µM, the IC50 (second compound 0.0949 µM) was under 0.0316 µM and the IC50 (second compound 0.3 µM) was under 0.0316 µM. The viability, T/C [1] was 87.9%, the viability, T/C [2] was 65.9% and the viability, T/C [3] was 33.9%. For the same compound, the viability, T/C [4] was 28.5%, the viability, T/C (second compound 0.000949 µM, first compound 3.16 µM) was 28.1% and the viability, T/C (second compound 0.000949 µM, first compound 10 µM) was 17.6%. The viability, T/C [5] was 72.5%, the viability, T/C [6] was 40.5% and the viability, T/C [7] was 25.3%. For the same compound, the viability, T/C [8] was 25%, the viability, T/C (second compound 0.003 µM, first compound 3.16 µM) was 17.7% and the viability, T/C (second compound 0.003 µM, first compound 10 µM) was 14%. For the same compound, the viability, T/C [9] was 47.4%, the viability, T/C [10] was 29.3% and the viability, T/C [11] was 25%. It also gave a viability, T/C [12] of 17.9%, a viability, T/C (second compound 0.00949 µM, first compound 3.16 µM) of 16.5% and a viability, T/C (second compound 0.00949 µM, first compound 10 µM) of 13.3%. It also gave a viability, T/C [13] of 42.9%, a viability, T/C [14] of 28.7% and a viability, T/C [15] of 22.4%. For the same compound, the viability, T/C [16] was 16.7%, the viability, T/C (second compound 0.03 µM, first compound 3.16 µM) was 11.3% and the viability, T/C (second compound 0.03 µM, first compound 10 µM) was 13.6%. It also gave a viability, T/C [17] of 30.5%, a viability, T/C [18] of 24.8% and a viability, T/C [19] of 18.6%. For the same compound, the viability, T/C [20] was 17.5%, the viability, T/C (second compound 0.0949 µM, first compound 3.16 µM) was 11.2% and the viability, T/C (second compound 0.0949 µM, first compound 10 µM) was 12.8%. It also gave a viability, T/C [21] of 31.9%, a viability, T/C [22] of 23.6% and a viability, T/C [23] of 18.4%. The viability, T/C [24] was 15.6%, the viability, T/C (second compound 0.3 µM, first compound 3.16 µM) was 12.5% and the viability, T/C (second compound 0.3 µM, first compound 10 µM) was 14.3%.
Work on C=CC(=O)N1CCN(c2nc(OCC3CCCN3C)nc3c(F)c(-c4nc(N)cc(C)c4C(F)(F)F)c(Cl)cc23)C(C)C1 (centres undefined) + CCn1c(-c2cc(N3CCN(C)CC3)cnc2C(C)OC)c2c3cc(ccc31)-c1csc(n1)CC(NC(=O)C1CC1C)C(=O)N1CCCC(N1)C(=O)OCC(C)(C)C2 yielded an IC50 (second compound 0.000949 µM) of over 1 µM, an IC50 (second compound 0.003 µM) of over 1 µM and an IC50 (second compound 0.00949 µM) of over 1 µM. For the same compound, the IC50 (second compound 0.03 µM) was under 0.00316 µM, the IC50 (second compound 0.0949 µM) was under 0.00316 µM and the IC50 (second compound 0.3 µM) was under 0.00316 µM. For the same compound, the viability, T/C (second compound 0.000949 µM, first compound 0.00316 µM) was 92.6%, the viability, T/C (second compound 0.000949 µM, first compound 0.01 µM) was 85.2% and the viability, T/C [1] was 66.2%. The viability, T/C [2] was 88.2%, the viability, T/C [3] was 84% and the viability, T/C [4] was 66.1%. The viability, T/C (second compound 0.003 µM, first compound 0.00316 µM) was 75.6%, the viability, T/C (second compound 0.003 µM, first compound 0.01 µM) was 75.9% and the viability, T/C [5] was 69.2%. The viability, T/C [6] was 74.2%, the viability, T/C [7] was 78.5% and the viability, T/C [8] was 54.5%. It also gave a viability, T/C (second compound 0.00949 µM, first compound 0.00316 µM) of 70.7%, a viability, T/C (second compound 0.00949 µM, first compound 0.01 µM) of 52.2% and a viability, T/C [9] of 52.9%. It also gave a viability, T/C [10] of 59.8%, a viability, T/C [11] of 49.7% and a viability, T/C [12] of 46.1%. The viability, T/C (second compound 0.03 µM, first compound 0.00316 µM) was 46.8%, the viability, T/C (second compound 0.03 µM, first compound 0.01 µM) was 43.2% and the viability, T/C [13] was 43.5%. The viability, T/C [14] was 32.2%, the viability, T/C [15] was 31.3% and the viability, T/C [16] was 38.5%. For the same compound, the viability, T/C (second compound 0.0949 µM, first compound 0.00316 µM) was 35.6%, the viability, T/C (second compound 0.0949 µM, first compound 0.01 µM) was 37.1% and the viability, T/C [17] was 34%. It also gave a viability, T/C [18] of 36.7%, a viability, T/C [19] of 29.2% and a viability, T/C [20] of 27.2%. It also gave a viability, T/C (second compound 0.3 µM, first compound 0.00316 µM) of 39.4%, a viability, T/C (second compound 0.3 µM, first compound 0.01 µM) of 52.7% and a viability, T/C [21] of 37.7%. For the same compound, the viability, T/C [22] was 28.8%, the viability, T/C [23] was 31.7% and the viability, T/C [24] was 31.6%.
